# Values quoted from earlier work, collected in US20130281394A1, “Chemosensory Receptor Ligand-Based Therapies” (ELCELYX THERAPEUTICS, INC., priority 2010, published 2013).
# Marks after values point to notes of the source that are not given here.
# Molecular target: T1, sweet receptor (Homo sapiens, UniProt Q7RTX0+Q8TE23)
# T1 sequence (Q8TE23 20-839): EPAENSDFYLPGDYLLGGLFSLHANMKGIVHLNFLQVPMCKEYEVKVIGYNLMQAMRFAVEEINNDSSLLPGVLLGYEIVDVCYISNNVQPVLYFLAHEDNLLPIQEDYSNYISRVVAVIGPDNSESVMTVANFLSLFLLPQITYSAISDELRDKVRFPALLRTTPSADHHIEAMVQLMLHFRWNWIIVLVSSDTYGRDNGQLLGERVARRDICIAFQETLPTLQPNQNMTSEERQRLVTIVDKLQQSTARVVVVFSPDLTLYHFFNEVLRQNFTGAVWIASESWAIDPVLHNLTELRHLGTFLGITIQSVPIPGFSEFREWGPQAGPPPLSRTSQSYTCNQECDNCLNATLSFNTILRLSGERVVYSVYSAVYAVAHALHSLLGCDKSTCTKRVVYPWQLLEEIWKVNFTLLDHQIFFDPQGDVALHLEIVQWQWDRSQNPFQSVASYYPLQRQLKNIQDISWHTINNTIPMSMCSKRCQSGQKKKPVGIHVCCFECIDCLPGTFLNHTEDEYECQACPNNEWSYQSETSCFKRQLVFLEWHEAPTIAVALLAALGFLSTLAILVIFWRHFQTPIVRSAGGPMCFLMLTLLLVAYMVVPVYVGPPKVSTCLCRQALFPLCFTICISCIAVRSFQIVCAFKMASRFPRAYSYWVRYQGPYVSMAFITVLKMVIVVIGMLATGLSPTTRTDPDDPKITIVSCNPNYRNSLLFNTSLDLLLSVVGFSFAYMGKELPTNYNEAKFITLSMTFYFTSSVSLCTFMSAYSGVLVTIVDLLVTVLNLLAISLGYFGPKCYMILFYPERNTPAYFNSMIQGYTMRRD
# T1 sequence (Q7RTX0 21-852): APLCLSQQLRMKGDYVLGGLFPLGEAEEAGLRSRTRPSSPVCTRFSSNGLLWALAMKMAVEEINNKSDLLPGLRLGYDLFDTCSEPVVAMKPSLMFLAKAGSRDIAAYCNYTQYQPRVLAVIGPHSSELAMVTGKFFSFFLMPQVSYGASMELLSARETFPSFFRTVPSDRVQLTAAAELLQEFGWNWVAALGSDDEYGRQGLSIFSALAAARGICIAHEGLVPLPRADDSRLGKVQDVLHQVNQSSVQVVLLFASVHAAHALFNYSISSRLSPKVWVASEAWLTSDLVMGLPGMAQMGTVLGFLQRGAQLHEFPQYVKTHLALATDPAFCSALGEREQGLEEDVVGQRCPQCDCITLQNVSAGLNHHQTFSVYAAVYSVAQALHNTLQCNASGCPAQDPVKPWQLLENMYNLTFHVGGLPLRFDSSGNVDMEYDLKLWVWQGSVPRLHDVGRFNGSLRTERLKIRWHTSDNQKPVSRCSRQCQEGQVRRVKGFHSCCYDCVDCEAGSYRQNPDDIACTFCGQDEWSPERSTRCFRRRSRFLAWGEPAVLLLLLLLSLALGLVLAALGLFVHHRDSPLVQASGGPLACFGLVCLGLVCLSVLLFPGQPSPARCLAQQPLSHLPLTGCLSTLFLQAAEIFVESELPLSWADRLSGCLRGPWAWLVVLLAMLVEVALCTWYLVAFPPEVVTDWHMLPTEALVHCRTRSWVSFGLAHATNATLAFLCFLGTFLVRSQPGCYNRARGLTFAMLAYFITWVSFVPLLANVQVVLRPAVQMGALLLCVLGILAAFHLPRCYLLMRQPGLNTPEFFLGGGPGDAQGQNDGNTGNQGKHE
# Conditions: relative sweetness on a weight comparison basis to sucrose (= 1.0); ranges: varied with the concentration of sucrose
row,Molecule,Sweetness/potency
1,"4β,11α-Dimethyl-1,2,3,4,5,10-hexahydro-fluorene-4α,6α-dicarboxylic acid","1,300-1,800^d"
2,"COc1c(O)cc2c(c1O)C(=O)[C@H](OC(C)=O)[C@@H](c1ccc(O)c(O)c1)O2 [(2R,3R)-2,3-Dihydro-5,7,3′,4′-tetrahydroxy-6-methoxy-3-O-acetylflavonol]",25
3,"COc1c(O)cc2c(c1O)C(=O)[C@H](O)[C@@H](c1ccc(O)c(O)c1)O2 [(2R,3R)-2,3-Dihydro-5,7,3′,4′-tetrahydroxy-6-methoxyflavonol]",15
4,"COc1c(O)cc2c(c1O)C(=O)[C@H](OC(C)=O)[C@@H](c1ccc(O)cc1)O2 [(2R,3R)-2,3-Dihydro-5,7,4′-trihydroxy-6-methoxy-3-O-acetylflavonol]",20
5,"CC(=O)O[C@H]1C(=O)c2c(O)cc(O)cc2O[C@@H]1c1ccc(O)c(O)c1 [(2R,3R)-Dihydroquercetin 3-O-acetate]",80
6,CC(C)=CCC[C@](C)(O)[C@@H]1CCC(C)=CC1=O [(+)-Hernandulcin],"1,500"
7,CC1=CC[C@@H]([C@@H](C)[C@H]2CC[C@@]3(C)[C@@H]4CC[C@H]5[C@](C)(C(=O)O)[C@@H](O[C@@H]6O[C@H](CO)[C@@H](O)[C@H](O)[C@H]6O)CC[C@@]56C[C@@]46CC[C@]23C)OC1=O [Abrusoside A],30
8,COC(=O)[C@H]1O[C@@H](O[C@H]2[C@H](O[C@H]3CC[C@]45C[C@]46CC[C@]4(C)[C@@H]([C@H](C)[C@@H]7CC=C(C)C(=O)O7)CC[C@@]4(C)[C@@H]6CC[C@H]5[C@]3(C)C(=O)O)O[C@H](CO)[C@@H](O)[C@@H]2O)[C@H](O)[C@@H](O)[C@@H]1O [Abrusoside B],100
9,CC1=CC[C@@H]([C@@H](C)[C@H]2CC[C@@]3(C)[C@@H]4CC[C@H]5[C@](C)(C(=O)O)[C@@H](O[C@@H]6O[C@H](CO)[C@@H](O)[C@H](O)[C@H]6O[C@@H]6O[C@H](CO)[C@@H](O)[C@H](O)[C@H]6O)CC[C@@]56C[C@@]46CC[C@]23C)OC1=O [Abrusoside C],50
10,CC1=CC[C@@H]([C@@H](C)[C@H]2CC[C@@]3(C)[C@@H]4CC[C@H]5[C@](C)(C(=O)O)[C@@H](O[C@@H]6O[C@H](CO)[C@@H](O)[C@H](O)[C@H]6O[C@@H]6O[C@H](C(=O)O)[C@@H](O)[C@H](O)[C@H]6O)CC[C@@]56C[C@@]46CC[C@]23C)OC1=O [Abrusoside D],75
11,CC1(C)C[C@H]2C3=CC[C@@H]4[C@@]5(C)CC[C@H](O[C@@H]6O[C@H](CO[C@@H]7OC[C@H](O)[C@H](O)[C@H]7O[C@@H]7OC[C@@H](O)[C@H](O)[C@H]7O)[C@@H](O)[C@H](O)[C@H]6O)C(C)(C)[C@@H]5CC[C@@]4(C)[C@]3(C)C[C@@H](O)[C@@]23C[C@@H]1OC3=O [Albiziasaponin A],5
12,CC1(C(=O)O)CCC2(C)CCC3(C)C(=CC(=O)C4C5(C)CCC(OC6OC(C(=O)O)C(O)C(O)C6OC6OCC(O)(CO)C6O)C(C)(C)C5CCC43C)C2C1 (stereo not drawn) [Apioglycyrrhizin],300
13,CC1(C)[C@@H](O[C@H]2O[C@H](C(=O)O)[C@@H](O)[C@H](O)[C@H]2O[C@@H]2OC[C@H](O)[C@H](O)[C@H]2O)CC[C@]2(C)[C@H]3C(=O)C=C4[C@@H]5C[C@@](C)(C(=O)O)CC[C@]5(C)CC[C@@]4(C)[C@]3(C)CC[C@@H]12 [Araboglycyrrhizin],150
14,C/C(=C\CC[C@@H](C)[C@H]1CC[C@@]2(C)[C@@H]3CC=C4[C@@H](CC[C@H](O[C@@H]5O[C@H](CO)[C@@H](O)[C@H](O)[C@H]5O)C4(C)C)[C@]3(C)[C@H](O)C[C@]12C)CO[C@@H]1O[C@H](CO[C@@H]2O[C@H](CO)[C@@H](O)[C@H](O)[C@H]2O)[C@@H](O)[C@H](O)[C@H]1O [Carnosifloside VI],77
15,COc1ccc(C2Oc3cc(O)cc(O)c3C(=O)C2OC(C)=O)cc1O (stereo not drawn) [Dihydroquercetin 3-O-acetate 4′-methyl ether],400
16,C=C1C[C@@]23CC[C@H]4[C@@](C)(CCC[C@@]4(C)C(=O)O[C@@H]4O[C@H](CO)[C@@H](O)[C@H](O)[C@H]4O)[C@@H]2CC[C@]1(O[C@@H]1O[C@H](CO)[C@@H](O)[C@H](O)[C@H]1O[C@@H]1O[C@@H](C)[C@H](O)[C@@H](O)[C@H]1O)C3 [Dulcoside A],30
17,C/C(=C\CO)CCC1=C(C=O)CC(OC2OCC(O)C(O)C2O)C2C(C)(CO)CCCC12C (stereo not drawn) [Gaudichaudioside A],55
18,CC1(C)[C@@H](O[C@H]2O[C@H](C(=O)O)[C@@H](O)[C@H](O)[C@H]2O[C@@H]2O[C@H](C(=O)O)[C@@H](O)[C@H](O)[C@H]2O)CC[C@]2(C)[C@H]3C(=O)C=C4[C@@H]5C[C@@](C)(C(=O)O)CC[C@]5(C)CC[C@@]4(C)[C@]3(C)CC[C@@H]12 [Glycyrrhizin],93-170^d
19,Oc1cc2c(cc1O)[C@@H]1c3ccc(O)c(O)c3OC[C@]1(O)C2 [Hematoxylin],120
20,C[C@H](CC[C@@H](O[C@@H]1O[C@H](CO)[C@@H](O)[C@H](O)[C@H]1O[C@@H]1O[C@H](CO)[C@@H](O)[C@H](O)[C@H]1O)C(C)(C)O)[C@H]1CC[C@@]2(C)[C@H]3CC=C4[C@@H](CC[C@H](O[C@@H]5O[C@H](CO[C@@H]6O[C@H](CO)[C@@H](O)[C@H](O)[C@H]6O)[C@@H](O)[C@H](O)[C@H]5O)C4(C)C)[C@]3(C)[C@H](O)C[C@]12C [Mogroside IV],233-392^d
21,C[C@H](CC[C@@H](O[C@@H]1O[C@H](CO[C@@H]2O[C@H](CO)[C@@H](O)[C@H](O)[C@H]2O)[C@@H](O)[C@H](O)[C@H]1O[C@@H]1O[C@H](CO)[C@@H](O)[C@H](O)[C@H]1O)C(C)(C)O)[C@H]1CC[C@@]2(C)[C@@H]3CC=C4[C@@H](CC[C@H](O[C@@H]5O[C@H](CO[C@@H]6O[C@H](CO)[C@@H](O)[C@H](O)[C@H]6O)[C@@H](O)[C@H](O)[C@H]5O)C4(C)C)[C@]3(C)[C@H](O)C[C@]12C [Mogroside V],250-425^d
22,N[C@@H](C[C@@](O)(Cc1c[nH]c2ccccc12)C(=O)O)C(=O)O [Monatin],"1,200-1,400^d"
23,C/C(=C\CC/C(C)=C/CO[C@@H]1O[C@H](CO)[C@@H](O)[C@H](O[C@@H]2O[C@@H](C)[C@H](O)[C@@H](O)[C@H]2O)[C@H]1O[C@@H]1O[C@@H](C)[C@H](O)[C@@H](O)[C@H]1O)CC/C=C(\C)CO[C@@H]1O[C@H](CO)[C@@H](O)[C@H](O[C@@H]2O[C@@H](C)[C@H](O)[C@@H](O)[C@H]2O)[C@H]1O[C@@H]1O[C@@H](C)[C@H](O)[C@@H](O)[C@H]1O [Mukurozioside IIb],ca. 1
24,C[C@@H]1O[C@@H](O[C@H]2[C@H](Oc3cc(O)c(C(=O)CCc4ccc(O)cc4)c(O)c3)O[C@H](CO)[C@@H](O)[C@@H]2O)[C@H](O)[C@H](O)[C@H]1O [Naringin dihydrochalcone],300
25,COc1ccc(CCC(=O)c2c(O)cc(O[C@@H]3O[C@H](CO)[C@@H](O)[C@H](O)[C@H]3O[C@@H]3O[C@@H](C)[C@H](O)[C@@H](O)[C@H]3O)cc2O)cc1O [Neohesperidin dihydrochalcone],"1,000"
26,C[C@@H]1O[C@@H](O[C@H]2O[C@@H]([C@@H](C)C3CC[C@@H]4[C@H]5CC(=O)[C@@H]6C[C@H](O[C@@H]7O[C@H](CO)[C@@H](O)[C@H](O)[C@H]7O[C@@H]7O[C@@H](C)[C@H](O)[C@@H](O)[C@H]7O)CC[C@]6(C)[C@@H]5CC[C@]34C)CC[C@@H]2C)[C@H](O)[C@H](O)[C@H]1O (stereo partly drawn) [Osladin],500
27,CC1(C(=O)O)C=C2C3CCC4C5(CO)CCC(OC6OC(C(=O)O)C(O)C(O)C6OC6OC(C(=O)O)C(O)C(O)C6O)C(C)(C)C5CCC4(C)C3(C)CCC2(C)CC1 (stereo not drawn) [Periandrin III],92
